The test system of data set [1] is anesthetized rats. Put plainly: perfused exteriorized small bowel, passage of tritium-labelled glucose into plasma. Particulars: plasma glucose clamped. Type of data set: in vivo, rat. The source says:
(§1) After one hour of amylin infusion, a bolus of glucose (lg/kg) was infused either into the stomach or the duodenum through a tube inserted through the esophagus. Because-the studies involved anesthetized rather than conscious rats, they are not considered in analyzing gastric motility, e.g., rate of emptying of stomach contents into the duodenum. However, the studies indicate that absorption of glucose from the duodenum into the blood was not delayed by amylin. […] In anesthetized rats, a segment of small bowel, still connected to the animal via its blood supply, was exteriorized and cannulae inserted so that the small bowel could be perfused with glucosed solutions of controlled composition. The animals were cannulated also via an artery (for blood sampling) and via a vein (for infusion of amylin, insulin and glucose). The lumen was perfused with a tritium-labelled glucose solution. The passage of glucose from the lumen of the gut into the rat was measured by the appearance of the tritium label in the plasma. The supposition that such appearance of tritium in the plasma was indeed measuring glucose uptake from the gut was tested by administration of the glucose transport blocker, phloridzin. […]

Another data set has as its system Mongrel dogs. The data set can be described thus: oral glucose tolerance test in dogs during amylin ± AC-0253 infusion. Particulars: for effects on plasma lactate: oral glucose load. Type of data set: in vivo. The method, then:
Mongrel dogs (9 males, 12-17 kg wt. range) were used for this study. All animals were fasted overnight prior to each study. Each animal served as its own control for all protocols. Animals were equilibrated for 30-60 minutes prior to the start of each protocol.
25% glucose (1 gm/kg) was administered by mouth at t=0 minutes. […] Samples for insulin, glucose and lactate were obtained at 15 minute intervals from t=-45 to t=180 minutes.

The test system of data set [2] is non-diabetic Harlan Sprague Dawley rats. Put plainly: gastric emptying of Phenol Red methylcellulose gel, normal rats. It is filed as in vivo, rat. Particulars: for ED50, suppression of gastric emptying: normal rats fasted 20 hours, s.c. 5 min before gavage. An excerpt: (§2) Twenty minutes after gavage, rats were anesthetized using 5% halothane, the stomach exposed and clamped at the pyloric and lower esophageal sphincters using artery forceps, removed and opened into an alkaline solution which was made up to a fixed volume. Stomach content was derived from the intensity of the phenol red in the alkaline solution, measured by absorbance at a wavelength of 560 nm. In most experiments, the stomach was clear. In other experiments, particulate gastric contents were centrifuged to clear the solution for absorbance measurements. Where the diluted gastric contents remained turbid, the spectroscopic absorbance due to Phenol Red was derived as the difference between that present in alkaline vs acidified diluent. In separate experiments on 7 rats, the stomach and small intestine were both excised and opened into an alkaline solution. The quantity of phenol red that could be recovered from the upper gastrointestinal tract within 20 minutes of gavage was 89±4%. To account for a maximal dye recovery of less than 100%, stomach contents remaining after 20 min were expressed as a fraction of the gastric contents recovered from control rats sacrificed immediately after gavage in the same experiment.
Since ED50 is log-normally distributed, it is expressed i standard error of the logarithm. Pairwise comparisons were performed using one-way analysis of variance and the Student-Newman-Keuls multiple comparisons test (Instat v2.0, GraphPad Software, San Diego) using P<0.05 as the level of significance.

The test system of another data set is diabetic BB rats. Put plainly: gastric emptying of Phenol Red methylcellulose gel, diabetic rats. It is filed as in vivo, rat. To be noted: for ED50 for suppression of gastric emptying: diabetic rats fasted 6 hours, s.c. 5 min before gavage. As to the method:
When BB rats were confirmed as being diabetic by glycosuria on at least 2 days, they were treated with daily s.c. injections of ultralente recombinant human insulin (Humulin-U, Eli Lilly, Ind.). Insulin therapy was aimed at maintaining glucose but minimizing ketones in the urine, in order to avoid hypoglycemic deaths. In fact, glycosuria was present in 88% of measurements and ketonuria in 52%. The average duration of diabetes was 53±5 days, and daily insulin requirements were 4.7±0.3 units. All animals were housed at 22.7±0.8 C in a 12:12 hour light:dark cycle (experiments being performed during the light cycle) and were fed and watered ad libitum (Diet LM-485, Teklad, Madison, Wis.).
The determination of gastric emptying by the method described below has usually been performed after a fast of ~20 hours to ensure that the stomach contained no chyme that would interfere with spectrophotometric absorbance measurements. However, diabetic rats treated with Ultralente insulin could not be fasted for 20 hours. […] Such animals were therefore. fasted for only 6 hours before measurement of gastric emptying. Non-diabetic rats were deprived of food for either 6 or 20 hours prior to experimentation. We have noted that even non-diabetic BB rats have elevated glycated hemoglobin concentrations, possibly indicating subclinical insulitis. Both non-diabetic Harlan Sprague Dawley rats and non-diabetic BB rats animals were therefore used in comparisons with diabetic rats. Thus there were 5 treatment groups:
as §2, with “experiment. […]” for “experiment.”

Data set [3] can be described thus: plasma amylin concentration after subcutaneous rat amylin (immuno-enzymometric assay). Type of data set: in vivo. Particulars: sc. As to the method: The plasma from 250 μL samples collected at 10 min intervals was separated and frozen at -20° C. for analysis by a 2-site immuno-enzymometric assay developed in-house.
To perform the immunoassay, black microtiter plates (Dynatech, Chantilly, Va.) were coated with the antibody F024-4.4 [Phelps J L, Blase E, Koda J E, unpublished] by overnight incubation at 4° C. with 20 ug antibody per mL in 50 mM carbonate at pH 9.6. Plates were washed with 0.05M Tris/0.15M sodium chloride/0.02% sodium azide/0.1% Tween 20 (TBS/Tween), and blocked with 1.0% nonfat dry milk powder in the same carbonate buffer for one hour at room temperature. Samples were thawed on ice, and diluted in 4% BSA/200mg/dl bovine cholesterol supertrate (Miles Pentex reagents, Miles Laboratories, Kankakee Ill.) if necessary. Samples or standards were added to the coated and blocked plates and incubated for one hour at room temperature. After washing, the F025-27 detection antibody conjugated to alkaline phosphatase was added. Antibody-enzyme coupling was performed using the maleimide alkaline phosphatase conjugation kit from Pierce Immunochemical Co (Rockford Ill.). The conjugate was incubated for three hours at room temperature, after which plates were washed thoroughly with Tris buffered saline. Bound enzyme was detected by incubation of the plates with the fluorescent substrate 4-methylumbelliferyl phosphate at 50 ug/ml in 1M diethanolamine/0.5 mM MgCl, pH 9.8 for 40 minutes at room temperature. The fluorescent signal was measured with a Dynatech Microfluor plate reader, and data analyzed on Multicalc software (Wallac, Gaithersburg Md.). […] When performed in this manner, the assay has a minimum detectable concentration of 2 pM.

Data set [4] concerns anesthetized rats. Put plainly: glucose bolus into stomach or duodenum during amylin infusion. Type of data set: in vivo. To be noted: rat amylin 0.35 nm/kg/min infusion.
Text: as §1

Another data set deals with intact rats. Particulars: given subcutaneously, no disturbance of blood pressure.
In data set [5] the test system is rats, rabbits, humans with Paget's disease. To be noted: cited from earlier work.
The subject of another data set is fed rats. To be noted: preinfusion of antagonist; cited from earlier work.
Another data set concerns corpulent LA/N rats. Put plainly: uptake of ingested labelled glucose load after amylin antagonist preinjection. To be noted: for acceleration of appearance of glucose-derived tritium in the plasma: 3 μg s.c. 3 minutes before gavage. It is filed as in vivo, rat. The method, then:
Uptake of an ingested labelled glucose load was measured in 11 conscious 24-hr fasted corpulent (500-600 g) LA/N rats on 2 occasions, 14 days apart.

Data set [6] has as its system motility of the gastro-intestinal tract. Particulars: 0.2 to 2 mgs intravenously; cited from earlier work.

No end group written: not given here.

On to `O=C(CCc1ccc(O)cc1)c1c(O)cc(O)cc1O[C@@H]1O[C@H](CO)[C@@H](O)[C@H](O)[C@H]1O` [Phloridzin, reference compound], for which, in the data set with anesthetized rats [1], the “passage of tritium-labelled glucose from the gut lumen into the plasma” value was “largely prevented the transit of label from the gut lumen into the plasma”.

On to `CC(C)C[C@H](NC(=O)[C@H](CC(N)=O)NC(=O)[C@H](CC(N)=O)NC(=O)[C@H](CO)NC(=O)[C@H](CO)NC(=O)[C@H](CCCNC(=N)N)NC(=O)[C@@H](NC(=O)[C@H](CC(C)C)NC(=O)[C@H](Cc1ccccc1)NC(=O)[C@H](CC(N)=O)NC(=O)[C@H](C)NC(=O)[C@H](CC(C)C)NC(=O)[C@H](CCCNC(=N)N)NC(=O)[C@H](CCC(N)=O)NC(=O)[C@@H](NC(=O)[C@H](C)NC(=O)[C@@H]1CSSC[C@H](NC(=O)[C@@H](N)CCCCN)C(=O)N[C@@H](CC(N)=O)C(=O)N[C@@H]([C@@H](C)O)C(=O)N[C@@H](C)C(=O)N[C@@H]([C@@H](C)O)C(=O)N1)[C@@H](C)O)C(C)C)C(=O)NCC(=O)N1CCC[C@H]1C(=O)N[C@H](C(=O)N[C@@H](CC(C)C)C(=O)N1CCC[C@H]1C(=O)N1CCC[C@H]1C(=O)N[C@H](C(=O)N[C@@H](CC(N)=O)C(=O)N[C@H](C(=O)NCC(=O)N[C@@H](CO)C(=O)N[C@@H](CC(N)=O)C(=O)N[C@H](C(=O)N[C@@H](Cc1ccc(O)cc1)C(N)=O)[C@@H](C)O)C(C)C)[C@@H](C)O)C(C)C` [amylin], for which the “rate of rise and peak of plasma glucose after oral glucose load” value in the data set on Mongrel dogs (amylin infusion 50, 100 and 300 pmol/kg/min, 25% glucose 1 gm/kg by mouth) is listed as “reduced both the rate of rise in plasma glucose as well as the peak plasma glucose”. Further, the “effects on plasma lactate” value in the data set with Mongrel dogs is recorded as “unremarkable”. Further, the “ED50 of inhibition of gastric emptying (summary statement)” value (in data set [2] (normal rats); in the data set with diabetic BB rats (diabetic rats)) was ~ 1 μg throughout. Also, the “ED50, suppression of gastric emptying” value in data set [2] is 0.60 nmole amylin/kg body weight; in data set [2] (±0.19 log units) it was 0.43 µg. The “dose that would restore gastric emptying to the rate of normal rats not administered amylin” value in the data set on diabetic BB rats (diabetic rat, estimated from fitted curves of FIG. 14) is on record as ~ 2 μg. The results for the “ED50 for suppression of gastric emptying” value with diabetic BB rats and in the data set on diabetic BB rats (±0.18 log units) were 2.3 nmol/kg and 2.2 µg, respectively. The level at time molar at 10 min was determined as 0.066 ± 0.01 nM in data set [3] (1 ug, 1 μg s.c.) and 0.347 ± 0.043 nM in [3] (10 ug, 10 μg s.c. bolus). The level at time molar at 20 min in [3] (10 ug, 10 μg s.c. bolus, 20 min) is 0.301 ± 0.057 nM. In addition, in the data set on anesthetized rats [4], the “absorption of glucose from the duodenum into the blood” value is listed as “not delayed”. Besides, the “passage of tritium-labelled glucose from the gut lumen into the plasma” value in the data set on anesthetized rats [1] is on record as “had no effect”. For the same compound, in the data set on intact rats, the plasma renin activity entry is reported as “markedly increases”. Besides, in data set [5], the “lowering of plasma calcium” value was “up to 20%”.

With “^8-37 hCGRP: demonstrated amylin blocker in vitro and in vivo; also an effective CGRP antagonist (VTHRLAGLLSRSGGVVKNFVPTNVGSKAF)”, in the data set on fed rats, the “glucose concentration following arginine infusion” value is on record as “subsequent fall in glucose concentration to well below the basal level” and the “insulin concentration 30 minutes following the arginine infusion vs normal controls” value is “almost twice as high”.

For the compound “acetyl-^10 Asn^32 Tyr^8-32 salmon calcitonin (Ac-VLNKLSQELHKLQTYPRTNTGSGTY; ends and bridges not checked) [AC-0187]”, the “plasma glucose 60 minutes after glucose gavage” value with corpulent LA/N rats (3 μg s.c.) amounted to 6.89 ± 0.28 mM. Also, the “acceleration of appearance of glucose-derived tritium in the plasma” value came out at 48% in the data set with corpulent LA/N rats (15 minutes post-gavage) and 45% with corpulent LA/N rats (30 minutes post-gavage). Also, the “plasma glucose 15 minutes after gavage” value with corpulent LA/N rats (3 μg s.c., gavage with 0.5 g glucose) was found to be 8.33 ± 0.28 mM. In addition, in the data set on corpulent LA/N rats (3 μg s.c., starting value), the “plasma glucose before gavage” value was found to be 5.89 ± 0.17 mM.

Regarding “acetyl-^11,18 Arg, ^30 Arg, ^32 Tyr-^9-32 calcitonin (salmon) [AC-0253]”, in the data set with Mongrel dogs (AC-0253 alone), the “changes in plasma glucose, antagonist alone” value was “has no effect”. Moreover, in the data set with Mongrel dogs (AC-0253 up to 1500 pmol/kg/min with amylin 50 pmol/kg/min), the “reversal of amylin-induced changes in plasma glucose” value is “does not completely reverse the effects of amylin”. Besides, the “effects on plasma lactate” value with Mongrel dogs is on record as “unremarkable”.

For “glucagon: polypeptide hormone produced by the alpha cells of the pancreatic islets; administered as glucagon hydrochloride”, the onset of effect result in data set [6] is “within one minute”.
